Results reported in patent publication US11986532B2 (Arvinas Operations, Inc., priority 2021, dated 2024).
Counter-ions that a name gives are not always drawn. Like-named read-outs stand apart in the source and are kept apart here.

Target: T1, BCL6 (Homo sapiens, UniProt P41182)
T1 construct: endogenous in cells; host or cells: T47D breast cancer epithelial cells
Assay: Immunofluorescence protocol for high content imaging of BCL6 (degradation) in T47D cells, 3 days compound treatment
Type: cell-based
Conditions: for DC50: read-out: Mean DC50 (nM)* category; for Dmax: read-out: Mean Dmax (%)** category
Summary of the method: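 For degradation, compound series (3-fold, 11 points, top 0.1 or 1 μM final) were added to adherent T47D cultures for 3 days. BCL6 immunostaining used a rabbit antibody at 1:300 and an Alexa-488 secondary, with imaging at 10× magnification.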

[1] = T47D cells, 3 days compound treatment

Row | SMILES | DC50 [1] | Dmax [1] | Dmax (T47D) | DC50 | Mean Dmax (%)** category
1 | CNC(=O)COc1cc2cc(Nc3nc(N4CCC(O[C@H]5C[C@H](N6CCN(c7ccc8c(c7F)CN(C7CCC(=O)NC7=O)C8=O)CC6)C5)CC4)ncc3Cl)ccc2n(C(C)C)c1=O (stereo partly drawn) [Compound 164, 2-[[6-[[5-chloro-2-[4-[3-[4-[2-(2,6-dioxo-3-piperidyl)-4-fluoro-1-oxo-isoindolin-5-yl]piperazin-1-yl]cyclobutoxy]-1-piperidyl]pyrimidin-4-yl]amino]-1-isopropyl-2-oxo-3-quinolyl]oxy]-N-methyl-acetamide formate] | < 10 nM | ≥ 70% | – | – | –
2 | CNC(=O)COc1cc2cc(Nc3nc(N4CCN(CC5C6CN(c7ccc8c(c7)C(=O)N(C7CCC(=O)NC7=O)C8=O)CC56)CC4)ncc3Cl)ccc2n(C(C)C)c1=O (stereo not drawn) [Compound 155, 2-{[6-({5-chloro-2-[4-({3-[2-(2,6-dioxopiperidin-3-yl)-1,3-dioxo-2,3-dihydro-1H-isoindol-5-yl]-3-azabicyclo [3.1.0]hexan-6-yl}methyl)piperazin-1-yl]pyrimidin-4-yl}amino)-2-oxo-1-(propan-2-yl)-1,2-dihydroquinolin-3-yl]oxy}-N-methylacetamide] | < 10 nM | < 50% | – | – | –
3 | CNC(=O)COc1cc2cc(Nc3nc(N4CCC(F)(CN5CCC6(CC5)CN(c5ccc7c(c5)C(=O)N(C5CCC(=O)NC5=O)C7=O)C6)CC4)ncc3Cl)ccc2n(C(C)C)c1=O (stereo not drawn) [Compound 43, 2-{[6-({5-chloro-2-[4-({2-[2-(2,6-dioxopiperidin-3-yl)-1,3-dioxo-2,3-dihydro-1H-isoindol-5-yl]-2,7-diazaspiro [3.5]nonan-7-yl}methyl)-4-fluoropiperidin-1-yl]pyrimidin-4-yl}amino)-2-oxo-1-(propan-2-yl)-1,2-dihydroquinolin-3-yl]oxy}-N-methylacetamide] | 10 to 50 nM | 50 to 70% | – | – | –
4 | CNC(=O)COc1cc2cc(Nc3nc(N4CCC(O[C@H]5C[C@H](N6CCN(c7cc(F)c8c(c7F)CN(C7CCC(=O)NC7=O)C8=O)CC6)C5)CC4)ncc3Cl)ccc2n(C(C)C)c1=O (stereo partly drawn) [Compound 273, 2-({6-[(5-chloro-2-{4-[(1r,3r)-3-{4-[2-(2,6-dioxopiperidin-3-yl)-4,7-difluoro-1-oxo-2,3-dihydro-1H-isoindol-5-yl]piperazin-1-yl}cyclobutoxy]piperidin-1-yl}pyrimidin-4-yl)amino]-2-oxo-1-(propan-2-yl)-1,2-dihydroquinolin-3-yl}oxy)-N-methylacetamide] | – | – | 50 to 70% | < 10 nM | –
5 | CNC(=O)COc1cc2cc(Nc3nc(N4CCC(F)(CN5CCC6(CC5)CN(c5cccc7c5CN(C5CCC(=O)NC5=O)C7=O)C6)CC4)ncc3Cl)ccc2n(C(C)C)c1=O (stereo not drawn) [Compound 52, 2-{[6-({5-chloro-2-[4-({2-[2-(2,6-dioxopiperidin-3-yl)-1-oxo-2,3-dihydro-1H-isoindol-4-yl]-2,7-diazaspiro[3.5]nonan-7-yl}methyl)-4-fluoropiperidin-1-yl]pyrimidin-4-yl}amino)-2-oxo-1-(propan-2-yl)-1,2-dihydroquinolin-3-yl]oxy}-N-methylacetamide] | < 10 nM | ≥ 70% | – | – | –
6 | CNC(=O)COc1cc2cc(Nc3nc(N4CCC(CN5CCC6(CN(c7cccc8c7CN(C7CCC(=O)NC7=O)C8=O)C6)C(F)(F)C5)CC4)ncc3Cl)ccc2n(C(C)C)c1=O (stereo not drawn) [Compound 102, 2-{[6-({5-chloro-2-[4-({2-[2-(2,6-dioxopiperidin-3-yl)-1-oxo-2,3-dihydro-1H-isoindol-4-yl]-5,5-difluoro-2,7-diazaspiro[3.5]nonan-7-yl}methyl)piperidin-1-yl]pyrimidin-4-yl}amino)-2-oxo-1-(propan-2-yl)-1,2-dihydroquinolin-3-yl]oxy}-N-methylacetamide] | < 10 nM | 50 to 70% | – | – | –
7 | CNC(=O)COc1cc2cc(Nc3nc(N4CCC(O[C@H]5C[C@H](N6C[C@@H](C)N(c7ccc8c(c7)C(=O)N(C7CCC(=O)NC7=O)C8=O)[C@@H](C)C6)C5)CC4)ncc3Cl)ccc2n(C(C)C)c1=O (stereo partly drawn) [Compound 244, 2-({6-[(5-chloro-2-{4-[(1r,3r)-3-[(3R,5S)-4-[2-(2,6-dioxopiperidin-3-yl)-1,3-dioxo-2,3-dihydro-1H-isoindol-5-yl]-3,5-dimethylpiperazin-1-yl]cyclobutoxy]piperidin-1-yl}pyrimidin-4-yl)amino]-2-oxo-1-(propan-2-yl)-1,2-dihydroquinolin-3-yl}oxy)-N-methylacetamide] | – | – | – | 10 to 50 nM | A (A >= 70)
8 | CNC(=O)COc1cc2cc(Nc3nc(N4CCC(O[C@H]5C[C@H](N6C[C@H](C)N(c7ccc8c(c7)C(=O)N(C7CCC(=O)NC7=O)C8=O)[C@@H](C)C6)C5)CC4)ncc3Cl)ccc2n(C(C)C)c1=O (stereo partly drawn) [Compound 246, 2-({6-[(5-chloro-2-{4-[(1r,3r)-3-[(3S,5S)-4-[2-(2,6-dioxopiperidin-3-yl)-1,3-dioxo-2,3-dihydro-1H-isoindol-5-yl]-3,5-dimethylpiperazin-1-yl]cyclobutoxy]piperidin-1-yl}pyrimidin-4-yl)amino]-2-oxo-1-(propan-2-yl)-1,2-dihydroquinolin-3-yl}oxy)-N-methylacetamide] | – | – | 50 to 70% | < 10 nM | –
9 | CNC(=O)COc1cc2cc(Nc3nc(N4CCC(O[C@H]5C[C@H](N6CC=C(c7ccc8c(c7F)CN(C7CCC(=O)NC7=O)C8=O)CC6)C5)CC4)ncc3Cl)ccc2n(C(C)C)c1=O (stereo partly drawn) [Compound 426, 2-({6-[(5-chloro-2-{4-[(1r,3r)-3-{4-[2-(2,6-dioxopiperidin-3-yl)-4-fluoro-1-oxo-2,3-dihydro-1H-isoindol-5-yl]-1,2,3,6-tetrahydropyridin-1-yl}cyclobutoxy]piperidin-1-yl}pyrimidin-4-yl)amino]-2-oxo-1-(propan-2-yl)-1,2-dihydroquinolin-3-yl}oxy)-N-methylacetamide] | – | – | ≥ 70% | < 10 nM | –

Continued, in another order:

Row | DC50 [1] | Dmax [1] | Dmax (T47D) | DC50 | SMILES | Mean Dmax (%)** category
10 | 10 to 50 nM | < 50% | – | – | CNC(=O)COc1cc2cc(Nc3nc(N4CC5C(CN6CCN(c7cccc8c7C(=O)N(C7CCC(=O)NC7=O)C8=O)CC6)C5C4)ncc3Cl)ccc2n(C(C)C)c1=O (stereo not drawn) [Compound 158, 2-{[6-({5-chloro-2-[6-({4-[2-(2,6-dioxopiperidin-3-yl)-1,3-dioxo-2,3-dihydro-1H-isoindol-4-yl]piperazin-1-yl}methyl)-3-azabicyclo [3.1.0]hexan-3-yl]pyrimidin-4-yl}amino)-2-oxo-1-(propan-2-yl)-1,2-dihydroquinolin-3-yl]oxy}-N-methylacetamide] | –
11 | – | – | 50 to 70% | < 10 nM | CNC(=O)COc1cc2cc(Nc3cc(N4CCC(CN5CCC6(CC5)CN(c5ccc7c(c5)CN(C5CCC(=O)NC5=O)C7=O)C6)CC4)ncc3Cl)ccc2n(C(C)C)c1=O (stereo not drawn) [Compound 321, 2-{[6-({5-chloro-2-[4-({2-[2-(2,6-dioxopiperidin-3-yl)-1-oxo-2,3-dihydro-1H-isoindol-5-yl]-2,7-diazaspiro[3.5]nonan-7-yl}methyl)piperidin-1-yl]pyridin-4-yl}amino)-2-oxo-1-(propan-2-yl)-1,2-dihydroquinolin-3-yl]oxy}-N-methylacetamide] | –
12 | < 10 nM | ≥ 70% | – | – | CNC(=O)COc1cc2c(F)c(Nc3nc(N4CCC(O[C@H]5C[C@H](N6CCN(c7ccc8c(c7C)C(=O)N(C7CCC(=O)NC7=O)C8=O)[C@H](C)C6)C5)CC4)ncc3Cl)ccc2n(C(C)C)c1=O (stereo partly drawn) [Compound 199] | –
13 | – | – | – | 10 to 50 nM | CNC(=O)COc1cc2cc(Nc3nc(N4CCC(CN5CCC6(CC5)CN(c5ccc7c(c5OC)CN(C5CCC(=O)NC5=O)C7=O)C6(C)C)CC4)ncc3Cl)ccc2n(C(C)C)c1=O (stereo not drawn) [Compound 340, 2-{[6-({5-chloro-2-[4-({2-[2-(2,6-dioxopiperidin-3-yl)-4-methoxy-1-oxo-2,3-dihydro-1H-isoindol-5-yl]-1,1-dimethyl-2,7-diazaspiro [3.5]nonan-7-yl}methyl)piperidin-1-yl]pyrimidin-4-yl}amino)-2-oxo-1-(propan-2-yl)-1,2-dihydroquinolin-3-yl]oxy}-N-methylacetamide] | –
14 | – | – | ≥ 70% | < 10 nM | CNC(=O)COc1cc2c(F)c(Nc3nc(N4CCC(CN5CCC6(CC5)CN(c5ccc7c(c5)C(=O)N(C5CCC(=O)NC5=O)C7=O)C6)CC4)ncc3Cl)ccc2n(C(C)C)c1=O (stereo not drawn) [Compound 347, 2-{[6-({5-chloro-2-[4-({2-[2-(2,6-dioxopiperidin-3-yl)-1,3-dioxo-2,3-dihydro-1H-isoindol-5-yl]-2,7-diazaspiro[3.5]nonan-7-yl}methyl)piperidin-1-yl]pyrimidin-4-yl}amino)-5-fluoro-2-oxo-1-(propan-2-yl)-1,2-dihydroquinolin-3-yl]oxy}-N-methylacetamide] | –
15 | < 10 nM | ≥ 70% | – | – | CNC(=O)COc1cc2cc(Nc3nc(N4CCC(O[C@H]5C[C@H](N6CCN(c7ccc8c(c7F)CN(C7CCC(=O)NC7=O)C8=O)C[C@H]6C)C5)CC4)ncc3Cl)ccc2n(C(C)C)c1=O (stereo partly drawn) [Compound 182] | –
16 | – | – | 50 to 70% | < 10 nM | CNC(=O)COc1cc2cc(Nc3nc(N4CCC(CN5[C@@H](C)CC6(C[C@@H]5C)CN(c5ccc7c(c5)C(=O)N(C5CCC(=O)NC5=O)C7=O)C6)CC4)ncc3Cl)ccc2n(C(C)C)c1=O (stereo partly drawn) [Compound 255, 2-[(6-{[5-chloro-2-(4-{[(6S,8S)-2-[2-(2,6-dioxopiperidin-3-yl)-1,3-dioxo-2,3-dihydro-1H-isoindol-5-yl]-6,8-dimethyl-2,7-diazaspiro[3.5]nonan-7-yl]methyl}piperidin-1-yl)pyrimidin-4-yl]amino}-2-oxo-1-(propan-2-yl)-1,2-dihydroquinolin-3-yl)oxy]-N-methylacetamide] | –
17 | – | – | 50 to 70% | < 10 nM | CNC(=O)COc1cc2cc(Nc3nc(N4CCC(OC5CCC6(CC5)CN(c5cc(F)cc7c5CN(C5CCC(=O)NC5=O)C7=O)C6)CC4)ncc3Cl)ccc2n(C(C)C)c1=O (stereo not drawn) [Compound 299, 2-{[6-({5-chloro-2-[4-({2-[2-(2,6-dioxopiperidin-3-yl)-6-fluoro-1-oxo-2,3-dihydro-1H-isoindol-4-yl]-2-azaspiro[3.5]nonan-7-yl}oxy)piperidin-1-yl]pyrimidin-4-yl}amino)-2-oxo-1-(propan-2-yl)-1,2-dihydroquinolin-3-yl]oxy}-N-methylacetamide] | –
